One block for each compound: values may come before it.
Experiments:
LDL = experiment: Protection against LDL oxidation by copper (conjugated diene formation); type: biochemical; conditions: for kinetics of LDL oxidation (lag phase): FIG. 5a, no control value printed; for LDL oxidation rate: FIG. 5b, absence of compounds 2; for rate of LDL oxidation: FIG. 8b, absence of compounds 2.5; for rate of diene formation: FIG. 2b, copper alone 2.2
Description: Unless otherwise indicated, the reagents were from Sigma (St Quentin, France). LDL were prepared according to the method described by Lebeau et al. (Lebeau, Furman et al. 2000).
The solutions of test compounds were prepared at 10^−2 M concentration in bicarbonate buffer (pH 9) and diluted in PBS to obtain final concentrations ranging from 0.1 to 100 μM
Prior to oxidation, EDTA was removed from the LDL preparation by dialysis. Oxidation then took place at 30° C. by adding 100 μl of 16.6 μM CuSO4 solution to 160 μL of LDL (125 μg protein/ml) and 20 μl of a test compound solution. The formation of dienes, the species under observation, was followed by measuring optical density at 232 nm in the samples treated with the compounds in the presence or absence of copper. Optical density at 232 nm was measured every 10 minutes for 8 hours in a thermostated spectrophotometer (Tecan Ultra 380). The analyses were performed in triplicate. The compounds were considered to have antioxidant activity when they induced a longer lag phase and reduced the rate of oxidation and the amount of dienes formed in comparison with the control sample.

PPARα = target: T1, PPARα (Homo sapiens, UniProt Q07869); experiment: PPARα/Gal4 transactivation system in COS-7 cells; type: cell-based; conditions: 24 hours
T1 construct: expressed in transfected cells; host or cells: COS-7 cells
T1 sequence (Q07869 239-466 limits assumed): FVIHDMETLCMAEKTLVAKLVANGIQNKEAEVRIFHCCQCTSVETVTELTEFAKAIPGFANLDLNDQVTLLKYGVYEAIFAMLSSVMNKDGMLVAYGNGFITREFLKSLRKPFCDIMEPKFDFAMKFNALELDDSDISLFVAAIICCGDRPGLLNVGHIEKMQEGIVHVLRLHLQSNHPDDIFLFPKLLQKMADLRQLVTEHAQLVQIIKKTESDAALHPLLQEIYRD
Description: (§1) COS-7 cells were incubated with different concentrations of the inventive compounds for 24 hours. The results are expressed as the induction factor (ratio of luminescent signal obtained with the compound and that observed without the compound) after the different treatments.
(§2) PPAR activation was tested in vitro in RK13 epitheloid or COS-7 cell lines by measuring the transcriptional activity of chimeras composed of the DNA binding domain of the yeast gal4 transcription factor and the ligand binding domain of the different PPARs. These latter results were then confirmed in cell lines according to the following protocols:
(§3) RK13 cells were from ECACC (Porton Down, UK), COS-7 cells were from the ATCC (American Type Culture Collection) and were grown in DMEM medium supplemented with 10% (VN) fetal calf serum, 100 U/ml penicillin (Gibco, Paisley, UK) and 2 mM L-glutamine (Gibco, Paisley, UK). The culture medium was changed every two days. Cells were kept at 37° C. in a humidified 95% air/5% CO2 atmosphere.
(§4) The plasmids pG5TkpGL3, pRL-CMV, pGal4-hPPARα, pGal4-hPPARγ, pGal4-hPPARδ and pGal4-φ have been described by Raspe, Madsen et al. (1999). The pGal4-mPPARα, pGal4-hPPARγ and pGal4-hPPARδ constructs were obtained by cloning into the pGal4-φ vector of PCR-amplified DNA fragments corresponding to the DEF domains of the human PPARα, PPARγ and PPARδ nuclear receptors.
(§5) RK13 cells were seeded in 24-well culture dishes at 5×10^4 cells/well, COS-7 cells in 96-well culture dishes at 5×10^4 cells/well and transfected for 2 hours with the reporter plasmid pG5TkpGL3 (50 ng/well), the expression vectors pGal4-φ, pGal4-mPPARα, pGal4-hPPARα, pGal4-hPPARγ, pGal4-hPPARδ (100 ng/well) and the transfection efficiency control vector pRL-CMV (1 ng/well) according to the previously described protocol (Raspe, Madsen et al. 1999), then incubated for 36 hours with the test compounds. At the end of the experiment, the cells were lysed (Gibco, Paisley, UK) and luciferase activity was determined with a Dual-Luciferase™ Reporter Assay System kit (Promega, Madison, Wis., USA) for RK13 cells and Steady Glow Luciferase (Promega) for COS-7 cells according to the supplier's instructions as previously described. The protein content of the cell extracts was then measured with the Bio-Rad Protein Assay (Bio-Rad, Munich, Germany) as directed by the supplier.

PPARγ = target: T2, PPARγ (Homo sapiens, UniProt P37231); experiment: PPARγ/Gal4 transactivation system in COS-7 cells; type: cell-based; conditions: 24 hours
T2 construct: expressed in transfected cells; host or cells: COS-7 cells
T2 sequence (P37231 238-503 limits assumed): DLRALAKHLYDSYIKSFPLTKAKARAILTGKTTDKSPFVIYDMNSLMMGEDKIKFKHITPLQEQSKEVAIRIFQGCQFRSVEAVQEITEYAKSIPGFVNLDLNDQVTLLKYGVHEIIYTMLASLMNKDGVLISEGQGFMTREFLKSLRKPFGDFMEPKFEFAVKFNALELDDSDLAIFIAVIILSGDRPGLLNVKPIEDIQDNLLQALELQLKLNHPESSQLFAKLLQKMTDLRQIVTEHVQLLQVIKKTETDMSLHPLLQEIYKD
Description: as §1, §2, §3, §4, §5

[1] = FIG. 7a, 10^−4M, absence of compounds 67.3 minutes
[2] = FIG. 5c, 10^−4M, absence of compounds 386
[3] = FIG. 8a, 10^−4M, absence of compounds 67.3 minutes
[4] = FIG. 2a, 10^−4M, copper alone 132 minutes
[5] = FIG. 2c, 10^−4M, copper alone 511

Structure (SMILES): COc1ccc(C(=O)/C=C/c2cc(C)c(OC(C)(C)C(=O)O)c(C)c2)cc1C(F)(F)F [compound 47, 1-(4-Methoxy-3-trifluoromethylphenyl)-3-(4-carboxydimethylmethyloxy-3,5-dimethylphenyl)prop-2-en-1-one]
lag phase (LDL; [1]): 126.5 min

Structure (SMILES): COc1ccc(OC)c(C(=O)/C=C/c2cc(C)c(OC(C)(C)C(=O)O)c(C)c2)c1 [compound 41, 1-(2,5-Dimethoxyphenyl)-3-(4-carboxydimethylmethyloxy-3,5-dimethylphenyl)prop-2-en-1-one]
lag phase (LDL; [1]): 100 min
total amount of dienes formed (LDL; FIG. 7c, 10^−4M, absence of compounds 432.5): 403 nmol/mg of LDL

Structure (SMILES): Cc1cc(C)c(C(=O)/C=C/c2cc(C)c(OC(C)(C)C(=O)O)c(C)c2)cc1C [compound 25, 1-(2,4,5-Trimethylphenyl)-3-(4-carboxydimethylmethyloxy-3,5-dimethylphenyl)prop-2-en-1-one]
kinetics of LDL oxidation (lag phase) (LDL; 10^−4M): 87.6 min
LDL oxidation rate (LDL; 10^−4M): 1.6 nmol/min/mg
total amount of dienes formed (LDL; [2]): 365 nmol/mg

Induction factor (PPARα; 0.003 μM): 1.41
Induction factor (PPARα; 0.01 μM): 1.54
Induction factor (PPARα; 0.03 μM): 2.53
Induction factor (PPARα; 0.1 μM): 7.47
Induction factor (PPARα; 0.3 μM): 15.51
Induction factor (PPARα; 1 μM): 24.33
Induction factor (PPARα; 3 μM): 23.70
Induction factor (PPARα; 10 μM): 21.03
Structure (SMILES): COc1ccc(C(=O)/C=C/c2cc(C)c(OC(C)(C)C(=O)O)c(C)c2)cc1F [compound 35, 1-(4-Methoxy-3-fluorophenyl)-3-(4-carboxydimethylmethyloxy-3,5-dimethylphenyl)prop-2-en-1-one]

Structure (SMILES): Cc1cc(C(=O)/C=C/c2cc(C)c(OC(C)(C)C(=O)O)c(C)c2)cc(C)c1OCCN1CCOCC1 [compound 43, 1-(3,5-Dimethyl-4-(morpholin-4-ylethyloxy)phenyl)-3-(4-carboxydimethylmethyloxy-3,5-dimethylphenyl)prop-2-en-1-one]
lag phase (LDL; [3]): 97 min
rate of LDL oxidation (LDL; 10^−4M): 2.2 nmol/min/mg

Structure (SMILES): Cc1cc(/C=C/C(=O)c2ccc(OCCC3CCCCC3)cc2)cc(C)c1OC(C)(C)C(=O)O [compound 11, 1-(4-Cyclohexylethyloxyphenyl)-3-(4-carboxydimethylmethyloxy-3,5-dimethylphenyl)prop-2-en-1-one]
lag phase (maximum) (LDL; FIG. 3a, 3.3×10^−5M, absence of compound 87.2 minutes): 210 min
lag phase (LDL; FIG. 3a, 10^−6 M, absence of compound 87.2 minutes): 101.5 min

Induction factor (PPARα; 1 μM): 5.48
Induction factor (PPARα; 10 μM): 7.01
Induction factor (PPARγ; 1 μM): 4.12
Induction factor (PPARγ; 10 μM): 6.83
Structure (SMILES): Cc1cc(/C=C/C(=O)c2ccc(OCCCCCC3CCSS3)cc2)cc(C)c1OC(C)(C)C(=O)O (racemic) [compound 6, 1-(4-((R,S)-5-[1,2]dithiolan-3-ylpentyloxy)phenyl)-3-(4-carboxydimethylmethyloxy-3,5-dimethylphenyl)prop-2-en-1-one]
lag phase (LDL; [4]): 205 min
rate of diene formation (LDL; 10^−4M): 1.7 nmol/min/mg
total amount of dienes formed (LDL; [5]): 443 nmol/mg

Structure (SMILES): COc1c(C)cc(C(=O)/C=C/c2cc(C)c(OC(C)(C)C(=O)O)c(C)c2)cc1C [compound 17, 1-(4-Methoxy-3,5-dimethylphenyl)-3-(4-carboxydimethylmethyloxy-3,5-dimethylphenyl)prop-2-en-1-one]
lag phase (LDL; [3]): 148 min
rate of LDL oxidation (LDL; 10^−4M): 1.8 nmol/min/mg

Structure (SMILES): Cc1cc(C(=O)/C=C/c2cc(C)c(OC(C)(C)C(=O)O)c(C)c2)cc(C)c1OCCSC1CCCCC1 [compound 27, 1-(4-Cyclohexylthioethyloxy-3,5-dimethylphenyl)-3-(4-carboxydimethylmethyloxy-3,5-dimethylphenyl)prop-2-en-1-one]
kinetics of LDL oxidation (lag phase) (LDL; 10^−4M): 170.8 min
LDL oxidation rate (LDL; 10^−4M): 0.8 nmol/min/mg
total amount of dienes formed (LDL; [2]): 374 nmol/mg

Structure (SMILES): CCCCCCOc1c(C)cc(C(=O)/C=C/c2cc(C)c(OC(C)(C)C(=O)O)c(C)c2)cc1C [compound 19, 1-(4-Hexyloxy-3,5-dimethylphenyl)-3-(4-carboxydimethylmethyloxy-3,5-dimethylphenyl)prop-2-en-1-one]
lag phase (LDL; FIG. 4a, 10^−4M, copper alone 61 minutes): 92.5 min
diene formation rate (LDL; FIG. 4b, 10^−4M, absence of compounds 1.9): 1.6 nmol/min/mg of LDL
total amount of dienes formed (LDL; FIG. 4c, 10^−4M, absence of compound 370.9): 346.6 nmol/mg of LDL

Induction factor (PPARα; 1 μM): 1.67
Induction factor (PPARα; 10 μM): 9.92
Induction factor (PPARγ; 1 μM): 2.00
Induction factor (PPARγ; 10 μM): 5.82
Structure (SMILES): Cc1cc(C(=O)/C=C/c2cc(C)c(OC(C)(C)C(=O)O)c(C)c2)cc(C)c1O [compound 4, 1-(4-Hydroxy-3,5-dimethylphenyl)-3-(4-carboxydimethylmethyloxy-3,5-dimethylphenyl)prop-2-ene-1-one]
lag phase (LDL; [4]): 401 min
rate of diene formation (LDL; 10^−4M): 0.2 nmol/min/mg
total amount of dienes formed (LDL; [5]): 138 nmol/mg

Induction factor (PPARα; 0.01 μM): 1.54
Induction factor (PPARα; 0.03 μM): 2.54
Induction factor (PPARα; 0.1 μM): 7.89
Induction factor (PPARα; 0.3 μM): 17.25
Induction factor (PPARα; 1 μM): 19.77
Induction factor (PPARα; 3 μM): 16.89
Structure (SMILES): COc1ccc(C(=O)/C=C/c2cc(C)c(OC(C)(C)C(=O)O)c(C)c2)cc1C [compound 37, 1-(4-Methoxy-3-methylphenyl)-3-(4-carboxydimethylmethyloxy-3,5-dimethylphenyl)prop-2-en-1-one]
lag phase (LDL; FIG. 6a, 10^−4M, absence of compound 56 minutes): 106 min
oxidation rate (LDL; FIG. 6b, 10^−4M, absence of compound 2): 1.8 nmol/min/mg of LDL
total amount of dienes formed (LDL; FIG. 6c, 10^−4M, absence of compound 360.0): 326.9 nmol/mg of LDL

Induction factor (PPARα; 1 μM): 15.67
Induction factor (PPARα; 10 μM): 12.66
Induction factor (PPARγ; 1 μM): 2.13
Induction factor (PPARγ; 10 μM): 2.74
Structure (SMILES): CSc1ccc(C(=O)/C=C/c2cc(Br)c(OC(C)(C)C(=O)O)c(Br)c2)cc1 [compound 8, 1-(4-Methylthiophenyl)-3-(4-carboxydimethylmethyloxy-3,5-dibromophenyl)prop-2-ene-1-one]
lag phase (LDL; [4]): 169 min
rate of diene formation (LDL; 10^−4M): 1.7 nmol/min/mg
total amount of dienes formed (LDL; [5]): 474 nmol/mg
